Data: US20230091908A1, “FLUORENE DERIVATIVE, METHOD FOR PRODUCING SAME, AND APPLICATION OF SAME” (Osaka Gas Chemicals Co., Ltd., priority 2019, published 2023)

Legend:
[1] = 5% mass reduction temperature (TG-DTA); assay type: physicochemical
Experimental: (5% Mass Reduction Temperature)
The temperature, at which the mass of the sample is reduced by 5% by mass was measured using a Thermogravimeter-Differential Thermal Analyzer (TG-DTA) (manufactured by SII NanoTechnology Inc., “TG/DTA6200”) in an atmosphere of a nitrogen gas, at a heating rate (programming rate) of 10° C./min. The sample (cured product) was prepared as follows.
That is, 3 parts by mass of Irgacure 184 (manufactured by BASF Japan Ltd.) as a photopolymerization initiator was added to 100 parts by mass of the total amount of the acrylate compound (polymerization component) shown in Table 1 or 3 weighed in a brown bottle, and the mixture was heated to 120° C. for dissolution to obtain a curable composition. An UV irradiation (500 mJ/cm^2) was repeated 4 times on the obtained curable composition to prepare the cured product.

[2] = Solubility in various solvents; assay type: physicochemical; design: key to Solubility: A: Soluble; B: Some soluble, but turbid; C: Insoluble; conditions: for Solubility: stirred at 50° C. for 30 minutes
Experimental: The sample 0.3 g was weighed in a sample bottle, the solvent was added by 0.7 g (condition 1: solid content of 30% by mass) or 1.0 g (condition 2: solid content of 23% by mass), and each of the obtained mixed solutions was stirred at a temperature of 50° C. for 30 minutes by using a bioshaker (manufactured by TAITEC CORPORATION, “BR-43FH”). Each of the mixed solutions after stirring was evaluated according to the following criteria. The used solvents were methyl ethyl ketone (MEK), methyl isobuthyl ketone (MIBK), ethyl acetate, propylene glycol monomethyl ether acetate (PGMEA), toluene, dimethylformamide (DMF), or cyclohexanone.
B: Some soluble, but turbid

Row | 5% mass reduction temperature ([1]; compound as obtained) [°C] | 5% mass reduction temperature ([1]; cured product of the compound (UV cured, Irgacure 184), nitrogen, 10° C./min) [°C] | Solubility ([2]; Cyclohexanone, solid content of 30% by mass) | Solubility ([2]; DMF, solid content of 30% by mass) | Solubility ([2]; Ethyl acetate, solid content of 30% by mass) | Solubility ([2]; MEK, solid content of 30% by mass) | Solubility ([2]; MIBK, solid content of 30% by mass) | Solubility ([2]; PGMEA, solid content of 23% by mass) | Solubility ([2]; PGMEA, solid content of 30% by mass) | Solubility ([2]; Toluene, solid content of 30% by mass) | Solubility in various solvents (summary in words) ([2]; summary of Table 2) | melting point [°C] | SMILES
1 | 390 | – | – | – | – | – | – | – | – | – | – | – | COC(=O)CCC1(CCC(=O)OC)c2cc(-c3ccc4ccccc4c3)ccc2-c2ccc(-c3ccc4ccccc4c3)cc21 [DNFDP-m, 9,9-bis(2-methoxycarbonylethyl)-2,7-di(2-naphthyl)fluorene]
2 | – | 382 | A | A | A | A | A | A | B | A | high solubility in various solvents | 120 | C=CC(=O)OCCCC1(CCCOC(=O)C=C)c2cc(-c3ccc4ccccc4c3)ccc2-c2ccc(-c3ccc4ccccc4c3)cc21 [DNPOA, 9,9-bis(3-acryloyloxypropyl)-2,7-di(2-naphthyl)fluorene]
